# Experimental data as given in patent US11911393B2, “Non-catalytic substrate-selective p38alpha-specific MAPK inhibitors with endothelial-stabilizing and anti-inflammatory activity, and methods of use thereof” (University of Maryland, Baltimore, priority 2016, dated 2024).
# System: TNFα-induced gene expression in HMVECLs
# Test: RNASeq of TNFα-induced gene expression
# Format: cell-based, human
# Conditions: 100 μM UM101, 10 μM SB203580
structure (smiles),measurement,setting,value
"C[S+]([O-])c1ccc(-c2nc(-c3ccncc3)c(-c3ccc(F)cc3)[nH]2)cc1 (centres unmarked) [SB203580, reference compound]",bin (gene expression response pattern): MAP2K6,"HMVECLs, TNFα",1
same,bin (gene expression response pattern): MMP9,"HMVECLs, TNFα",3
same,bin (gene expression response pattern): MUC4,"HMVECLs, TNFα",3
same,bin (gene expression response pattern): NEURL3,"HMVECLs, TNFα",5
same,bin (gene expression response pattern): NIPAL4,"HMVECLs, TNFα",5
same,bin (gene expression response pattern): NOG,"HMVECLs, TNFα",5
same,bin (gene expression response pattern): NUAK1,"HMVECLs, TNFα",5
same,bin (gene expression response pattern): NUAK2,"HMVECLs, TNFα",5
same,bin (gene expression response pattern): OR2I1P,"HMVECLs, TNFα",3
same,bin (gene expression response pattern): PALMD,"HMVECLs, TNFα",5
same,bin (gene expression response pattern): PCDH17,"HMVECLs, TNFα",5
same,bin (gene expression response pattern): PCLO,"HMVECLs, TNFα",5
same,bin (gene expression response pattern): PDE7B,"HMVECLs, TNFα",5
same,bin (gene expression response pattern): PDK4,"HMVECLs, TNFα",5
same,bin (gene expression response pattern): PGF,"HMVECLs, TNFα",5
same,bin (gene expression response pattern): PLA1A,"HMVECLs, TNFα",3
same,bin (gene expression response pattern): PRICKLE1,"HMVECLs, TNFα",5
same,bin (gene expression response pattern): PRKCH,"HMVECLs, TNFα",5
same,bin (gene expression response pattern): PRRG4,"HMVECLs, TNFα",3
same,bin (gene expression response pattern): PTGER4P2,"HMVECLs, TNFα",5
same,bin (gene expression response pattern): RASSF9,"HMVECLs, TNFα",5
same,bin (gene expression response pattern): RGCC,"HMVECLs, TNFα",5
same,bin (gene expression response pattern): RIMS1,"HMVECLs, TNFα",5
same,bin (gene expression response pattern): RN7SL471P,"HMVECLs, TNFα",5
same,bin (gene expression response pattern): RNF152,"HMVECLs, TNFα",5
same,bin (gene expression response pattern): RP11-197M22.2,"HMVECLs, TNFα",5
same,bin (gene expression response pattern): RP11-244F12.3,"HMVECLs, TNFα",5
same,bin (gene expression response pattern): RP11-284F21.7,"HMVECLs, TNFα",1
same,bin (gene expression response pattern): RP11-309L24.2,"HMVECLs, TNFα",5
same,bin (gene expression response pattern): RP11-490B18.5,"HMVECLs, TNFα",3
same,bin (gene expression response pattern): RP11-758N13.1,"HMVECLs, TNFα",5
same,bin (gene expression response pattern): RPA4,"HMVECLs, TNFα",5
same,bin (gene expression response pattern): SEMA6D,"HMVECLs, TNFα",1
same,bin (gene expression response pattern): SERTAD4,"HMVECLs, TNFα",5
same,bin (gene expression response pattern): SGK223,"HMVECLs, TNFα",5
same,bin (gene expression response pattern): SH3RF2,"HMVECLs, TNFα",5
same,bin (gene expression response pattern): SH3TC2,"HMVECLs, TNFα",5
same,bin (gene expression response pattern): SLC15A3,"HMVECLs, TNFα",3
same,bin (gene expression response pattern): SLC16A6,"HMVECLs, TNFα",5
same,bin (gene expression response pattern): SLC45A3,"HMVECLs, TNFα",5
same,bin (gene expression response pattern): SLCO4A1,"HMVECLs, TNFα",5
same,bin (gene expression response pattern): SMAD6,"HMVECLs, TNFα",5
same,bin (gene expression response pattern): SNORD12B,"HMVECLs, TNFα",3
same,bin (gene expression response pattern): SOX18,"HMVECLs, TNFα",5
same,bin (gene expression response pattern): SSTR1,"HMVECLs, TNFα",5
same,bin (gene expression response pattern): TCHH,"HMVECLs, TNFα",3
same,bin (gene expression response pattern): TGFA,"HMVECLs, TNFα",5
same,bin (gene expression response pattern): TLR7,"HMVECLs, TNFα",2
same,bin (gene expression response pattern): TRIL,"HMVECLs, TNFα",1
same,bin (gene expression response pattern): TRPC6,"HMVECLs, TNFα",5
same,bin (gene expression response pattern): TSLP,"HMVECLs, TNFα",3
same,bin (gene expression response pattern): UNC5B-AS1,"HMVECLs, TNFα",5
same,bin (gene expression response pattern): VAV3,"HMVECLs, TNFα",5
same,bin (gene expression response pattern): VDR,"HMVECLs, TNFα",3
same,bin (gene expression response pattern): Y_RNA,"HMVECLs, TNFα",3
same,bin (gene expression response pattern): ZNF365,"HMVECLs, TNFα",5
same,bin (gene expression response pattern): ZNF467,"HMVECLs, TNFα",5
same,bin (gene expression response pattern): ZNF521,"HMVECLs, TNFα",5
same,bin (gene expression response pattern),HPCA (ENSG00000121905),8
same,bin (gene expression response pattern),IFIH1 (ENSG00000115267),7
same,bin (gene expression response pattern),IL1A (ENSG00000115008),8
same,bin (gene expression response pattern),IL3RA (ENSG00000185291),7
same,bin (gene expression response pattern),IL12RB1 (ENSG00000096996),8
same,bin (gene expression response pattern),IRF8 (ENSG00000140968),7
same,bin (gene expression response pattern),KYNU (ENSG00000115919),7
same,bin (gene expression response pattern),LINC00092 (ENSG00000225194),7
same,bin (gene expression response pattern),LST1 (ENSG00000204482),7
same,bin (gene expression response pattern),LYPD6 (ENSG00000187123),7
same,bin (gene expression response pattern),MIR126 (ENSG00000199161),7
same,bin (gene expression response pattern),MOB3C (ENSG00000142961),7
same,bin (gene expression response pattern),MRGPRX4 (ENSG00000179817),7
same,bin (gene expression response pattern),NKD2 (ENSG00000145506),8
same,bin (gene expression response pattern),NKX3-1 (ENSG00000167034),8
same,bin (gene expression response pattern),OLR1 (ENSG00000173391),8
same,bin (gene expression response pattern),P2RX2 (ENSG00000187848),8
same,bin (gene expression response pattern),PARP14 (ENSG00000173193),7
same,bin (gene expression response pattern),PEXHG (ENSG00000104883),7
same,bin (gene expression response pattern),PRRT2 (ENSG00000167371),7
same,bin (gene expression response pattern),RCAN1 (ENSG00000159200),7
same,bin (gene expression response pattern),RND1 (ENSG00000172602),8
same,bin (gene expression response pattern),RP3-416H24.1 (ENSG00000257671),8
same,bin (gene expression response pattern),RP4-607I7.1 (ENSG00000255521),7
same,bin (gene expression response pattern),RP4-681N20.5 (ENSG00000275582),8
same,bin (gene expression response pattern),RP4-734G22.3 (ENSG00000272078),7
same,bin (gene expression response pattern),RP11-79H23.3 (ENSG00000261618),7
same,bin (gene expression response pattern),RP11-158I3.3 (ENSG00000269826),8
same,bin (gene expression response pattern),RP11-283G6.5 (ENSG00000255750),7
same,bin (gene expression response pattern),RP11-342K2.1 (ENSG00000279133),8
same,bin (gene expression response pattern),RP11-638I2.9 (ENSG00000258521),8
same,bin (gene expression response pattern),RP11-875011.2 (ENSG00000246130),7
same,bin (gene expression response pattern),SCUBE2 (ENSG00000175356),7
same,bin (gene expression response pattern),SFMBT2 (ENSG00000198879),7
same,bin (gene expression response pattern),SLC19A3 (ENSG00000135917),7
same,bin (gene expression response pattern),SLC26A9 (ENSG00000174502),8
same,bin (gene expression response pattern),SLC52A3 (ENSG00000101276),7
same,bin (gene expression response pattern),TMEM52B (ENSG00000165685),8
same,bin (gene expression response pattern),TNF (ENSG00000232810),8
same,bin (gene expression response pattern),TNIP3 (ENSG00000050730),7
same,bin (gene expression response pattern),TOX (ENSG00000198846),8
same,bin (gene expression response pattern),TP63 (ENSG00000073282),8
same,bin (gene expression response pattern),VCAM1 (ENSG00000162692),7
